The record followed here is ChEMBL document CHEMBL1127390, “Novel acyclic nucleotides and nucleoside 5'-triphosphates imitating 2',3'-dideoxy-2',3'-didehydronucleotides: synthesis and biological properties” (1994).

The structures appear in SMILES notation. Activity calls are given as the source filed them. The rule behind the calls is not given here.

For experiment [1], the system named is MT4. The experiment can be described thus: Anti HIV-l activity in infected MT-4 cells cultures; NA is NO Activity. In kind it is functional, cell-based. The conditions noted are these: Homo sapiens.
Experiment [2] has as its target Human immunodeficiency virus type 1 reverse transcriptase (Human immunodeficiency virus 1) (UniProt Q72547). The experiment can be described thus: Tested for percent inhibition of the human immunodeficiency virus (HIV) reverse transcriptase in MT-4. In kind it is functional.
Experiment [3] has the same target. The experiment can be described thus: In vitro effective dose for the inhibition of human immunodeficiency virus (HIV) reverse transcriptase in MT-4 and peripheral lymphocyte (PBL) cell cultures; NI is No Inhibition up to a concentration of 100 uM. Type of experiment: functional.
Experiment [4] relates to MT4. The experiment can be described thus: Activity in HIV-l infected MT-4 cells cultures; No activity. Type of experiment: functional, cell-based. Particulars: Homo sapiens.
Experiment [5] relates to MT4. The experiment can be described thus: Anti HIV-l activity in infected MT-4 cells cultures. In kind it is functional. Particulars: Homo sapiens, read-out: ED50 (the source's name).

Consider `Cc1cn(C/C=C\COCP(=O)(O)O)c(=O)[nH]c1=O`, for which the ED50 entry in experiment [1] is “inactive”.
In experiment [2], `Nc1ccn(C/C=C\COCP(=O)(O)OP(=O)(O)OP(=O)(O)O)c(=O)n1` came in with an ED50 of 50 µM.
As for `Nc1ncnc2c1ncn2C/C=C\CCOP(=O)(O)OP(=O)(O)OP(=O)(O)O`, the ED50 entry in experiment [3] was “No inhibition”.
Take `Nc1ncnc2c1ncn2C/C=C\CO`: the ED50 result in experiment [4] is “inactive”.
Consider `Nc1ncnc2c1ncn2C/C=C\COCP(=O)(O)O`, for which the EC50 in experiment [5] came to 9 µM.
As for `Nc1ccn(C/C=C\COCP(=O)(O)O)c(=O)n1`, in experiment [1], the ED50 entry is “inactive”.
Turning to `Nc1nc(O)c2ncn(C/C=C\COCP(=O)(O)O)c2n1`, the ED50 entry in experiment [1] was “inactive”.
